Experimental data published in ChEMBL document CHEMBL1614632, “Trend analysis of a database of intravenous pharmacokinetic parameters in humans for 670 drug compounds” (Drug Metab Dispos, 2008).

Legend:
[1] = clinical; settings: human, in vivo, iv, Vdss
[2] = clinical; settings: human, in vivo, iv
[3] = clinical; settings: human, in vivo, iv; remark: listed apart in the source
[4] = clinical; settings: human, in vivo, iv, t1/2
[5] = clinical; settings: human, in vivo, iv, CL

Row | Compound | Vd [1] [L/kg] | fraction unbound [2] | MRT [3] [h] | half-life [4] [h] | clearance [5] [mL/min/kg]
1 | CCCC(=O)OCOC(=O)C1=C(C)NC(C)=C(C(=O)OC)C1c1cccc(Cl)c1Cl (stereo unspecified) [CLEVIDIPINE] | 0.58 | 0.0038 | 0.07 | 0.3 | –
2 | COC(=O)[C@H]1[C@@H](OC(=O)c2ccccc2)C[C@@H]2CC[C@H]1N2C [COCAINE] | – | 0.12 | 1 | 0.76 | –
3 | Nc1ccc(S(=O)(=O)c2ccc(N)cc2)cc1 [DAPSONE] | 0.83 | 0.25 | 29 | – | –
4 | O=c1[nH]cc(F)c(=O)[nH]1 [FLUOROURACIL] | – | 0.64 | – | – | –
5 | COc1ccc(Cl)cc1C(=O)NCCc1ccc(S(=O)(=O)NC(=O)NC2CCCCC2)cc1 [GLYBURIDE] | 0.08 | 0.021 | 1.6 | 2.2 | –
6 | CN(C)CCCN1c2ccccc2CCc2ccccc21 [IMIPRAMINE] | 12 | 0.075 | – | – | –
7 | N=C(N)c1ccc(C(=O)N[C@@H](Cc2ccc(O)cc2)C(=O)N2CCC(OCC(=O)O)CC2)cc1 [LAMIFIBAN] | – | 0.94 | 2.5 | 2.1 | –
8 | N[C@@H](Cc1ccc(O)c(O)c1)C(=O)O [LEVODOPA] | – | 0.76 | 1.2 | 1.3 | –
9 | C=CCN1CC[C@]23c4c5ccc(O)c4O[C@H]2C(=O)CC[C@@]3(O)[C@H]1C5 [NALOXONE] | 1.7 | 0.54 | 1.2 | 1.1 | –
10 | O=C1CN(/N=C/c2ccc([N+](=O)[O-])o2)C(=O)N1 [NITROFURANTOIN] | 0.57 | 0.17 | 0.98 | 0.97 | –
11 | CCN(CC)CC#CCOC(=O)C(O)(c1ccccc1)C1CCCCC1 (stereo unspecified) [OXYBUTYNIN] | 0.85 | 0.0034 | 2.7 | 7.2 | –
12 | CC(=O)O[C@H]1C[C@@H]2CC[C@@H]3[C@H](CC[C@@]4(C)[C@H]3C[C@H]([N+]3(C)CCCCC3)[C@@H]4OC(C)=O)[C@@]2(C)C[C@@H]1[N+]1(C)CCCCC1 [PANCURONIUM] | 0.2 | 0.09 | 2.2 | 1.9 | –
13 | CCOc1ccc(NC(C)=O)cc1 [PHENACETIN] | 1.4 | 0.47 | 1.1 | 0.92 | –
14 | C[C@]12C=CC(=O)C=C1CC[C@@H]1[C@@H]2[C@@H](O)C[C@@]2(C)[C@H]1CC[C@]2(O)C(=O)CO [PREDNISOLONE] | – | 0.25 | – | – | –
15 | CC(CN1c2ccccc2Sc2ccccc21)N(C)C (stereo unspecified) [PROMETHAZINE] | – | 0.09 | – | – | –
16 | Cc1cccc(C)c1NC(=O)C(C)N (stereo unspecified) [TOCAINIDE] | 1.8 | – | 14 | 12 | 2.2
17 | Cc1ccc(O)c([C@H](CCN(C(C)C)C(C)C)c2ccccc2)c1 [TOLTERODINE] | 1.5 | – | 2.98 | 2.4 | 8.4
18 | CC[C@@]1(O)C(=O)OCc2c1cc1n(c2=O)Cc2cc3c(CN(C)C)c(O)ccc3nc2-1 [TOPOTECAN] | – | 0.65 | – | – | –
19 | Cc1cccc(Nc2ccncc2S(=O)(=O)NC(=O)NC(C)C)c1 [TORSEMIDE] | 0.21 | – | 6.6 | 5.1 | 0.53
20 | COc1cc2c(cc1O)CCN[C@]21CS[C@@H]2c3c(OC(C)=O)c(C)c4c(c3[C@H](COC1=O)N1[C@@H]2[C@H]2c3c(cc(C)c(OC)c3O)C[C@@H]([C@@H]1O)N2C)OCO4 [TRABECTEDIN] | 25 | – | 35 | 44 | 12

Row | Compound | Vd [1] [L/kg] | fraction unbound [2] | MRT [3] [h] | half-life [4] [h] | clearance [5] [mL/min/kg]
21 | COc1cccc(C2(O)CCCCC2CN(C)C)c1 (stereo unspecified) [TRAMADOL] | 2.8 | – | 7.2 | 5.8 | 6.5
22 | NC[C@H]1CC[C@H](C(=O)O)CC1 [TRANEXAMIC ACID] | 0.38 | – | 2.6 | 2.3 | 2.4
23 | O=c1n(CCCN2CCN(c3cccc(Cl)c3)CC2)nc2ccccn12 [TRAZODONE] | 0.52 | – | 6.2 | 7.3 | 1.4
24 | COc1cc2c(N)nc(N3CCN(C(=O)OCC(C)(C)O)CC3)nc2c(OC)c1OC [TRIMAZOSIN] | 0.18 | – | 3.1 | 3.1 | 0.96
25 | CN1[C@@H]2CC[C@H]1C[C@@H](OC(=O)c1c[nH]c3ccccc13)C2 [TROPISETRON] | 9.7 | – | 6.3 | 5.6 | 26
26 | CCCC[C@@H]1CC(=O)[C@]2(O)O[C@@H]3[C@@H](NC)[C@@H](O)[C@@H](NC)[C@H](O)[C@H]3O[C@@H]2O1 [TROSPECTOMYCIN] | 0.7 | – | 6.9 | 11 | 1.7
27 | Nc1ccn([C@@H]2CO[C@H](CO)O2)c(=O)n1 [TROXACITABINE] | 1 | – | 6.9 | 82 | 2.4
28 | CN[C@H](CC(C)C)C(=O)N[C@H]1C(=O)N[C@@H](CC(N)=O)C(=O)N[C@H]2C(=O)N[C@H]3C(=O)N[C@H](C(=O)N[C@H](C(=O)O)c4cc(O)cc(O)c4-c4cc3ccc4O)[C@H](O)c3ccc(c(Cl)c3)Oc3cc2cc(c3O[C@@H]2O[C@H](CO)[C@@H](O)[C@H](O)[C@H]2O[C@H]2C[C@](C)(N)[C@H](O)[C@H](C)O2)Oc2ccc(cc2Cl)[C@H]1O [VANCOMYCIN] | 0.54 | – | 6.9 | 6.5 | 1.3
29 | CCOc1ccccc1OCC1CNCCO1 (stereo unspecified) [VILOXAZINE] | 0.73 | – | 5.8 | 4.1 | 2.1
30 | CC[C@]1(O)C[C@H]2CN(CCc3c([nH]c4ccccc34)[C@@](C(=O)OC)(c3cc4c(cc3OC)N(C=O)[C@H]3[C@@](O)(C(=O)OC)[C@H](OC(C)=O)[C@]5(CC)C=CCN6CC[C@]43[C@@H]65)C2)C1 [VINCRISTINE] | 2.4 | – | 20 | 23 | 2
31 | CC[C@]1(O)C[C@@H]2CN(CCc3c([nH]c4ccccc34)[C@@](C(=O)OC)(c3cc4c(cc3OC)N(C)[C@H]3[C@@](O)(C(N)=O)[C@H](O)[C@]5(CC)C=CCN6CC[C@]43[C@@H]65)C2)C1 [VINDESINE] | 5 | – | 38 | 35 | 2.2
32 | O=C(NCCNCC(O)COc1ccc(O)cc1)N1CCOCC1 (stereo unspecified) [XAMOTEROL] | 0.64 | – | 3.6 | 7.7 | 3
33 | CCN(C(C)=O)c1cccc(-c2ccnc3c(C#N)cnn23)c1 [ZALEPLON] | 1.3 | 0.4 | 1.4 | – | –
34 | CC(=O)N[C@H]1[C@H]([C@H](O)[C@H](O)CO)OC(C(=O)O)=C[C@@H]1N=C(N)N [ZANAMIVIR] | 0.23 | – | 2.4 | 1.7 | 1.6
35 | O=C1Cc2cc(CCN3CCN(c4nsc5ccccc45)CC3)c(Cl)cc2N1 [ZIPRASIDONE] | 1 | – | 3.3 | 3.1 | 5.1
36 | CN(C)CCc1c[nH]c2ccc(C[C@H]3COC(=O)N3)cc12 [ZOLMITRIPTAN] | 1.8 | – | 4.6 | 3.6 | 6.7
37 | Cc1ccc(-c2nc3ccc(C)cn3c2CC(=O)N(C)C)cc1 [ZOLPIDEM] | 0.54 | – | 2.1 | 1.7 | 4.3
38 | O=C(O)Cn1c(=O)c(=O)[nH]c2cc([N+](=O)[O-])c(-n3ccnc3)cc21 [ZONAMPANEL] | 0.19 | – | 0.6 | 0.78 | 5.3
39 | CN1CCN(C(=O)OC2c3nccnc3C(=O)N2c2ccc(Cl)cn2)CC1 (stereo unspecified) [ZOPICLONE] | 1.3 | – | 6.6 | 5.2 | 3.3
40 | CO[C@H]1C[C@@H]2CC[C@@H](C)[C@@](O)(O2)C(=O)C(=O)N2CCCC[C@H]2C(=O)O[C@H]([C@H](C)C[C@@H]2CC[C@H](n3cnnn3)[C@H](OC)C2)CC(=O)[C@H](C)/C=C(\C)[C@@H](O)[C@@H](OC)C(=O)[C@H](C)C[C@H](C)/C=C/C=C/C=C/1C [ZOTAROLIMUS] | 1.3 | – | 33 | 35 | 0.67
